{"source": "patent US10821115B2", "about": "“Compounds that inhibit Mcl-1 protein” (priority 2017, dated 2020)", "key": {"[1]": {"biological_target": "recombinant human Mcl-1 (residues 171-327) / Bim interaction (Homo sapiens (Human), UniProt Q07820)", "sequence (Q07820 171-327)": "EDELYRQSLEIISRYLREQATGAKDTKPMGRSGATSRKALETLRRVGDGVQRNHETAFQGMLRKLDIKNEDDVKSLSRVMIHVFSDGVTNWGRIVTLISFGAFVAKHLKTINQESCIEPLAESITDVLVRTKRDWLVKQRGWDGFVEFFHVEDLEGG", "assay": "biochemical", "assay_type": "binding", "settings": "0.1 nM Mcl-1(171-327), 0.05 nM biotin-Bim (51-76); read-out: Mcl-1 HTRF IC50"}, "[2]": {"tested_on": "human multiple myeloma cell line, OPM-2", "assay": "Cell viability assay (OPM-2 10 FBS), CellTiter-Glo", "assay_type": "cell-based", "settings": "Homo sapiens, OPM-2, 16 h, read-out: OPM-2 10% FBS IC50 IP, OPM-2 cells, 10% FBS, 16 h incubation", "how_it_was_run": "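Steps: plate cells at 3000/well in 10% FBS growth medium, add serially diluted compound, incubate 16 h at 37 °C with 5% CO2, add detection reagent and read luminescence after 25 min. A 4-parameter logistic model gives IC50.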"}}, "data": [{"smiles": "COCC[C@@H]1[C@@H](C)C/C=C/[C@](CN2CCN(C)CC2)(OC)[C@@H]2CC[C@H]2CN2C[C@@]3(CCCc4cc(Cl)ccc43)COc3ccc(cc32)C(=O)NS1(=O)=O", "note": "[Example 180, (1S,3′R,6′R,7′S,8′E,11′S,12′R)-6-chloro-7′-methoxy-12′-(2-methoxyethyl)-11′-methyl-7′-((4-methyl-1-piperazinyl)methyl)-3,4-dihydro-2H,15′H-spiro[naphthalene-1,22′-[20]oxa[13]thia[1,14]diazatetracyclo [14.7.2.0~3,6~.0~19,24~]pentacosa[8,16,18,24]tetraen]-15′-one 13′,13′-dioxide]", "values": [{"measurement": "IC50", "setting": "[1]", "result": 0.106, "unit": "nM"}, {"measurement": "IC50", "setting": "[2]", "result": 81, "unit": "nM"}]}, {"smiles": "COCC[C@@H]1[C@@H](C)C/C=C/[C@@](CN2CCN3CCCC[C@@H]3C2)(OC)[C@@H]2CC[C@H]2CN2C[C@@]3(CCCc4cc(Cl)ccc43)COc3ccc(cc32)C(=O)NS1(=O)=O", "note": "[Example 181, (1S,3′R,6′R,7′R,8′E,11′S,12′R)-6-chloro-7′-methoxy-12′-(2-methoxyethyl)-11′-methyl-7′-((9aR)-octahydro-2H-pyrido[1,2-a]pyrazin-2-ylmethyl)-3,4-dihydro-2H,15′H-spiro[naphthalene-1,22′-[20]oxa[13]thia[1,14]diazatetracyclo [14.7.2.0~3,6~.0~19,24~]pentacosa[8,16,18,24]tetraen]-15′-one 13′,13′-dioxide]", "values": [{"measurement": "IC50", "setting": "[1]", "result": 0.324, "unit": "nM"}, {"measurement": "IC50", "setting": "[2]", "result": 74, "unit": "nM"}]}, {"smiles": "COCC[C@@H]1[C@@H](C)C/C=C/[C@](CN2CCN3CCCC[C@@H]3C2)(OC)[C@@H]2CC[C@H]2CN2C[C@@]3(CCCc4cc(Cl)ccc43)COc3ccc(cc32)C(=O)NS1(=O)=O", "note": "[Example 182, (1S,3′R,6′R,7′S,8′E,11′S,12′R)-6-chloro-7′-methoxy-12′-(2-methoxyethyl)-11′-methyl-7′-((9aR)-octahydro-2H-pyrido[1,2-a]pyrazin-2-ylmethyl)-3,4-dihydro-2H,15′H-spiro[naphthalene-1,22′-[20]oxa[13]thia[1,14]diazatetracyclo [14.7.2.0~3,6~.0~19,24~]pentacosa[8,16,18,24]tetraen]-15′-one 13′,13′-dioxide]", "values": [{"measurement": "IC50", "setting": "[1]", "result": 0.171, "unit": "nM"}, {"measurement": "IC50", "setting": "[2]", "result": 88, "unit": "nM"}]}, {"smiles": "COC[C@@H]1[C@@H](C)C/C=C/[C@@](CN2CCN3CCOC[C@@H]3C2)(OC)[C@@H]2CC[C@H]2CN2C[C@@]3(CCCc4cc(Cl)ccc43)COc3ccc(cc32)C(=O)NS1(=O)=O", "note": "[Example 184, (1S,3′R,6′R,7′R,8′E,11′S,12′S)-6-chloro-7′-((9aS)-hexahydropyrazino[2,1-c][1,4]oxazin-8(1H)-ylmethyl)-7′-methoxy-12′-(methoxymethyl)-11′-methyl-3,4-dihydro-2H,15′H-spiro[naphthalene-1,22′-[20]oxa[13]thia[1,14]diazatetracyclo [14.7.2.0~3,6~.0~19,24~]pentacosa[8,16,18,24]tetraen]-15′-one 13′,13′-dioxide]", "values": [{"measurement": "IC50", "setting": "[1]", "result": 0.068, "unit": "nM"}, {"measurement": "IC50", "setting": "[2]", "result": 17, "unit": "nM"}]}, {"smiles": "CO[C@]1(CN2CCN3CCOC[C@@H]3C2)/C=C/C[C@H](C)[C@@H](C)S(=O)(=O)NC(=O)c2ccc3c(n2)N(C[C@@H]2CC[C@H]21)C[C@@]1(CCCc2cc(Cl)ccc21)CO3", "note": "[Example 185, (1S,3′R,6′R,7′R,8′E,11′S,12′R)-6-chloro-7′-((9aS)-hexahydropyrazino[2,1-c][1,4]oxazin-8(1H)-ylmethyl)-7′-methoxy-11′,12′-dimethyl-3,4-dihydro-2H,15′H-spiro[naphthalene-1,22′-[20]oxa[13]thia[1,14,25]triazatetracyclo [14.7.2.0~3,6~.0~19,24~]pentacosa[8,16,18,24]tetraen]-15′-one 13′,13′-dioxide]", "values": [{"measurement": "IC50", "setting": "[1]", "result": 0.17, "unit": "nM"}, {"measurement": "IC50", "setting": "[2]", "result": 1060, "unit": "nM"}]}]}
